Measurements: patent US6599499B1, “Uses of diterpenoid triepoxides as an anti-proliferative agent” (priority 1999, dated 2003)
“And” between values parts separate entries of the source, which are not always exact repeats. Equal values may be shown once.

Tests used:
p53 null (−/−) MEFs = test: Cell viability of p53-/- mouse embryonic fibroblasts; conditions: Fibroblast, read-out: reduction of cell viability
Procedure: Cell culture and luciferase assay. A549 (non-small cell lung cancer), HT-1080 (fibrosarcoma), and MCF-7 (breast cancer) cells were cultured in the appropriate media with 10% FCS supplemented with L-glutamine, penicillin, and streptomycin. p53 wild-type (+/+) and null (−/−) Mouse Embryonic Fibroblasts (MEFs) transfected with the E1A/Ras were grown in DMEM containing 15% FCS supplemented with L-glutamine, penicillin, and streptomycin. Transfections were done on MCF-7 cells using the lipofectamine Plus reagent. At 24 hours after transfection, MCF-7 cells were left untreated or treated with triptolide (20 ng/ml) or doxorubicin (100 nM) for 4, 8, and 16 hours and cells were collected for luciferase assay. Luciferase activity was measured in samples with equal protein concentration with a Luminometer (Analytical Luminescence Laboratory, San Diego, Calif.).
Cell viability assay. Cell viability was measured by an 3-(4,5-dimethylthiazol-2-yl)-2,5-diphenyltetrazolium bromide (MTT) assay as described above. Untreated or cells treated with triptolide and/or doxorubicin were harvested at the indicated times followed by the addition of MTT to the cells in a 96-well plate. Cells were solubilized with […] acidified with 0.1N HCl. The 96-plate was read at a wavelength of 590 nm on an iEMS Labsystems plate reader.

p21 = p21 protein level by immunoblot in MCF-7 cells; assay type: cell-based, human; conditions: triptolide-treated MCF-7 cells
Procedure: Immunoblotting. At 8 hours after triptolide and/or doxorubicin treatment cells were harvested at the times indicated and lysed using HNET buffer (50 mM HEPES pH 7.5, 100 mM NaCl, 1 mM EGTA, and 1% Triton X-100) supplemented with 1 mM DTT, 1 mM PMSF and protease inhibitors cocktail (Boehringer Mannheim, Germany). 35 μg of protein was loaded on 10% SDS-PAGE followed by transferring to PVDF membrane. Immunoblotting was performed as previously described using a p53 mouse monoclonal antibody from Oncogene Research Products (Lee et al. (1999) J Biol Chem 274:13451-5).
Immunoblot analysis using other antibodies was performed as described above. The band intensity was measured by NIH Image 1.62.

p53 translation = p53 translation by [35S]methionine metabolic labeling of MCF-7 cells; assay type: cell-based, human; conditions: MCF-7, triptolide 20 ng/ml pretreatment 6 h
Procedure: Metabolic labeling of MCF-7cells. Cells were grown to 80% confluence followed by pretreatment with triptolide (20 ng/ml) for 6 h in the appropriate medium. Cells were washed twice with short-term labeling medium (RPMI with 5% dialyzed FCS supplemented with L-glutamine, penicillin, and streptomycin). To deplete intracellular pools of methionine short-term labeling medium was added for 15 min at 37° C., then replaced by short-term labeling medium containing 0.1 mCi/ml [^35S] methionine (Amersham, Inc.). Cells were labeled for 30 min at 37° C. and washed with ice-cold PBS before harvesting for immunoprecipitation. The cells were lysed using RIPA buffer supplemented with protease inhibitors and immunoprecipitated using an agarose-conjugated p53 mAb (Ab-6, Oncogene Research Products) followed by 10% SDS-PAGE. The intensity of labeled p53 protein was measured by NIH Image 1.62.

phosphorylated p53 = test: p53 phosphorylation by in vivo [32P]orthophosphate labeling of HT1080 cells; assay type: cell-based, human; conditions: HT1080, triptolide 20 ng/ml, 3 h
Procedure: In Vivo [^32P]Orthophosphate Labeling. Subconfluent HT1080 cells were pretreated with 20 ng/ml triptolide for 2 h in Dulbecco's modified Eagle's medium supplemented with 10% fetal bovine serum and antibiotics. These cells were washed twice with 37 ° C. labeling medium (Dulbecco's modified Eagle's medium, 10% fetal bovine serum dialyzed against phosphate-free) lacking sodium phosphate. Cells were then labeled for an additional 1 h with the labeling medium containing 1 mCi/ml [32P]orthophosphate and 20 ng/ml triptolide. The labeling medium was removed, and the cells were washed three times with cold Tris-buffered saline (TBS). The cells were scraped in 1 ml of lysis buffer (1% Nonidet P40, 1% sodium deoxycholate, 0.1% SDS, 0.15 M NaCl, 0.01 M sodium phosphate, pH 7.2, 2 mM EDTA, 50 mM sodium fluoride, 0.2 mM sodium vanadate, and 100 units/ml aprotinin) and kept on ice for 10 min. Lysates were passed through 27-gauge needles and spun at 11,000×g for 10 min, and 100 μg of the supernatants were subjected to immunoprecipitation with p53 mAb (Ab-6) conjugated with agarose for 4 h. Samples were then spun at 2500 rpm at 4° C. for 5 min and washed three times with the lysis buffer. The pellets were boiled in SDS sample buffer and analyzed on 10% SDS-PAGE. The bands were visualized and quantified by Optiquant Phosphorlmager.

[1] = tested on: HT-29 human colon cancer cell line tumors; test: Nude mouse xenograft, established HT-29 colon cancer tumors; assay type: in vivo, nude mice
Procedure: HT-29 tumor cells grown in tissue culture were harvested and implanted intradermally on the backs of nude mice. Tumor size was monitored by measuring the dimensions of each tumor and calculating tumor volume with a formula. […] PG490-88 treatment at 0.25 mg/kg was administered daily i.p. 5 days per week for 2 weeks. Navelbine at 10 mg/kg was given i.v. on days 0 and 7. Mice in the combination treatment group received PG490-88 i.p. and Navelbine i.v. at the appropriate times. The treatments were given to mice at 100 μl per 10 g of mouse body weight. Tumor dimensions were measured periodically for calculation of tumor volumes. […] The data are presented as mean percent change in tumor volume from day 0 for each treatment group. Toxicity of the treatment was monitored by weighing the mice daily 5 days per week. In FIG. 8, a comparison is provided for tumor volumes on Days 0 and 14. Tumor dimensions were measured periodically for calculation of tumor volumes, and the final determinations were made on day 14.

SMILES	cytotoxicity at 0.005 µg/mL (p53 null (−/−) MEFs) [%]	cytotoxicity at 0.01 µg/mL (p53 null (−/−) MEFs) [%]	decrease in the level of p21 protein (p21) [fold]	increase in p53 translation (p53 translation)	increase in phosphorylated p53 compared with untreated cells (phosphorylated p53)	increase in tumor volume from day 0 by day 14 ([1]; PG490-88 0.25 mg/kg i.p. 5 days per week for 2 weeks, Navelbine 10 mg/kg i.v. days 0 and 7) [%]	Day 0 Tumor Volume (mm^3) Mean ([1]; baseline at grouping, before treatment) [mm^3]
CC(C)[C@]12O[C@H]1[C@@H]1O[C@]13[C@]1(O[C@H]1C[C@H]1C4=C(CC[C@@]13C)C(=O)OC4)[C@@H]2O [PG490, triptolide]	15	50	3	4.9 fold and 5 fold	2-3 fold		
CC(C)[C@]12O[C@H]1[C@@H]1O[C@]13[C@]1(O[C@H]1C[C@H]1C4=C(CC[C@@]13C)C(=O)OC4)[C@@H]2OC(=O)CCC(=O)[O-].[Na+] [PG490-88, 14-succinyl triptolide sodium salt]						238	109
